Reference: patent publication US4157392A, “Pharmacologically active substituted 1,2,4-triazines” (Diamond Shamrock Corporation, priority 1978, dated 1979)
Where two headings read alike, the source gives them in different places.

Legend:
[1] = system: carrageenin-induced edema in the hind paw of a rat; assay: Carrageenin Assay (carrageenin-induced edema, hind paw); format: in vivo, rat (male, Long Evans strain); conditions: 1 h before carrageenin, edema at 3 h, compared to phenylbutazone control values; for inhibition in vivo at 40 mg/kg: 40 mg/kg oral
Experimental: The procedure employed is a modification of the method of Winter et al, Proc. Soc. Exptl. Biol. Med. 111:544 (1962). The device used for measurement of the paw volume is an adaptation of the water displacement procedure described by Adamkiewicz et al, Can. J. Biochem. Physiol. 33:332 (1955). Test compounds were administered orally, one hour prior to the intraplantar injection of 0.05 ml. of sterile 1.0 percent solution of carrageenin into the left hind paw of male rats (Long Evans strain) weighing between about 130-200 grams. At peak swelling time (3 hours) the volume of edema was calculated by differential paw volumes.
Table I sets forth the results obtained (indicated as percent reduction of edema compared to phenylbutazone control values) at the indicated dosages for each of the identified compounds.

[2] = system: phenylquinone writhing in mice; assay: Phenylquinone Writhing Assay (analgesia); format: in vivo, mouse (Carworth CF1 male mice); conditions: for responders at 12.5 mg/kg: 12.5 mg/kg oral; for responders at 25 mg/kg: 25 mg/kg oral; for responders at 50 mg/kg: 50 mg/kg oral; for responders at 15 mg/kg: 15 mg/kg oral; for responders at 10 mg/kg: 10 mg/kg oral
Summary of the method: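 Male CF1 mice (ten per group) dosed orally in 0.25% methylcellulose, then challenged i.p. with 0.02% phenylquinone at 15, 30, 60 or 120 min post-dose. Mice showing no writhing over 10 min count as protected; percent analgesia = number protected ×10.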

[3] = system: Spontaneously hypertensive rats; assay: SHR Assay (anti-hypertensive); format: in vivo, rat (spontaneously hypertensive); conditions: for Mean Drop (systolic blood pressure): dose 100, oral
Experimental: Spontaneously hypertensive rats, 12 to 16 weeks of age, were used in this assay. Systolic blood pressures were determined by the tail cuff method, utilizing capacitance transducers for the detection of pressure, an aneroid manometer for measuring pressure, and an oscilloscope for visualizing the disappearance and/or appearance of the pressure pulse. Heart rate was measured by a biotachometer. Groups of five rats having systolic blood pressures of 170 mmHg or greater were chosen and the test compounds administered at the doses indicated below (oral) as a solution or suspension in 0.25% methylcellulose (MC) at a volume of 5 ml/kg. One group served as the control and received the vehicle. Twenty-four hours after dosing, systolic blood pressure and heart rate were recorded. A second dose of compound was administered and blood pressure and heart rate determined at 4 and 24 hours after the second dose.

[4] = system: tuberculostatic; conditions: in vitro (J. Chem. Soc., 1956, 713-16); cited from earlier work
[5] = system: yeast induced fever; assay: Antipyretic Assay (yeast induced fever); format: in vivo; conditions: for temps. at 191/2 hrs. / temps. at 18 hrs. (Test Compounds Administered) / temps. at 0 hr.: 100 mg/kg; for temps. at 191/2 hrs.: 1 1/2 hrs. after administration; for temps. at 18 hrs. (Test Compounds Administered): at time of administration; for temps. at 0 hr.: before yeast fever and compound
Experimental: As indicated previously, certain of the compounds of the invention also display excellent antipyretic activity. […] Antipyretic activity was measured utilizing the conventional yeast induced fever assay procedure (15% yeast solution injected at two sites).

[6] = system: adjuvant-induced arthritis, hind paw of the rat; assay: Adjuvant-Arthritis Assay; format: in vivo
[7] = system: antihypertensive; conditions: Burger, Medicinal Chemistry, 3rd Ed., 1027; cited from earlier work
[8] = system: central nervous system activity in mice; assay: Neuropharmacological Profile; format: in vivo, mouse (white male Carworth Farm Strain CF-1); conditions: 300,100,30,10 mg/kg intraperitoneal
Experimental: The central nervous system activity of certain of the preferred compounds in accordance with the present invention were determined using the following neuropharmacological profile assay procedures.
White male mice of the Carworth Farm Strain (CF-1) weighing 18-22 grams were used in these determinations. […] Intraperitoneal injections were administered in logarithmic progression and sequentially. The dose levels employed routinely are 10, 30, 100, and 300 mg/kg, using four male mice at each dose level. Since this test was conducted in a sequential manner, the first dose administered was at 300 mg/kg. The mice were injected at this dose level and observed for gross changes produced by the drug, such as behavioral, neurological, autonomic, and toxic effects.
The animals were observed continuously for one hour and if no signs of pharmacological or toxicological activity were present at the end of the first hour, they were intermittently checked for activity every fifteen minutes thereafter for two consecutive hours. […] Subsequent dose levels below 300 mg/kg were not administered in this case. Alternatively, if demonstrable pharmacological changes occurred within the first three hours after administration of the drug at 300 mg/kg, the subsequent doses were administered and the animals observed for changes in overt behavior. The observation period begins immediately following the injection and the animals are then continuously observed for three hours and intermittently checked thereafter for forty-eight hours. The animals were observed and signs and symptoms of pharmacological activity were recorded continuously until no further symptoms developed and until the symptoms that had appeared were no longer present. […] It was very important that the animals were free to move about for evaluation of spacial orientation, alertness, and spontaneous motor activity. The animals were systematically observed and manipulated to measure the onset, peak effect, duration and character of drug action.
The major characteristics observed relative to central nervous system activity for the compounds indicated are summarized in the following Table IV.

[9] = Mus musculus, po, 0.25 h, 15 Min., read-out: Phenylquinone Writhing Assay (% Control), percent analgesia
[10] = Mus musculus, po, 0.5 h, 30 Min., read-out: Phenylquinone Writhing Assay (% Control), percent analgesia
[11] = Mus musculus, po, 1 h, 60 Min, read-out: Phenylquinone Writhing Assay (% Control), percent analgesia
[12] = Rattus norvegicus, read-out: % Reduction of Edema

## 3-Methylhydrazino-5-Phenyl-1,2,4-Triazine [Example 3A]
[1]; 100 mg/kg oral
  % Reduction of Edema: 76%
[2]; 100 mg/kg oral, 15 Min.
  Phenylquinone Writhing Assay (% Control), percent analgesia: 60%
[2]; 100 mg/kg oral, 30 Min.
  Phenylquinone Writhing Assay (% Control), percent analgesia: 30%
[2]; 100 mg/kg oral, 60 Min
  Phenylquinone Writhing Assay (% Control), percent analgesia: 30%
[3]; 4 hr.
  Mean Drop (systolic blood pressure): 0 mm/Hg.
[3]; 24 hr.
  Mean Drop (systolic blood pressure): 49 mm/Hg.
[3]; second 4 hr. column (after second dose)
  Mean Drop (systolic blood pressure): 56 mm/Hg.
[3]; second 24 hr column (after second dose)
  Mean Drop (systolic blood pressure): 92 mm/Hg.

## Cc1nnc(S)nc1C [3-mercapto-5,6-dimethyl-1,2,4-triazine]
[4]
  tuberculostatic activity: tuberculostatic in vitro

## CC(=O)Oc1ccccc1C(=O)O [Aspirin, reference compound]
[5]
  temps. at 191/2 hrs.: 37.8
  temps. at 18 hrs. (Test Compounds Administered): 38.8
  temps. at 0 hr.: 38.0

## COc1nncc(-c2ccccc2)n1 [Example 2, 3-methoxy-5-phenyl-1,2,4-triazine]
[1]; Rattus norvegicus, 200 mg/kg oral, read-out: % Reduction of Edema
  inhibition in vivo at 200 mg/kg: 86%
[6]; 40 mg/kg oral once daily, Day 3, developing disease
  Adjuvant-Arthritis Assay (% Reduction): 39%
[6]; 40 mg/kg oral once daily, Day 10, developing disease
  Adjuvant-Arthritis Assay (% Reduction): 23%
[6]; 40 mg/kg oral once daily, Day 17, developing disease
  Adjuvant-Arthritis Assay (% Reduction): 0%
[6]; 80 mg/kg oral once daily, Day 3, developing disease
  Adjuvant-Arthritis Assay (% Reduction): 40%
[6]; 80 mg/kg oral once daily, Day 10, developing disease
  Adjuvant-Arthritis Assay (% Reduction): 18%
[6]; 80 mg/kg oral once daily, Day 17, developing disease
  Adjuvant-Arthritis Assay (% Reduction): 0%
[6]; 120 mg/kg oral once daily, Day 3, developing disease
  Adjuvant-Arthritis Assay (% Reduction): 30%
[6]; 120 mg/kg oral once daily, Day 10, developing disease
  Adjuvant-Arthritis Assay (% Reduction): 13%
[6]; 120 mg/kg oral once daily, Day 17, developing disease
  Adjuvant-Arthritis Assay (% Reduction): 21%
[5]
  temps. at 191/2 hrs.: 35.3
  temps. at 18 hrs. (Test Compounds Administered): 39.0
  temps. at 0 hr.: 38.1
[5]; compared to aspirin
  antipyretic activity: comparable in activity to aspirin
[2]; [9]
  responders at 12.5 mg/kg: 10%
  responders at 25 mg/kg: 40%
  responders at 50 mg/kg: 90%
[2]; [10]
  responders at 12.5 mg/kg: 30%
  responders at 25 mg/kg: 60%
  responders at 50 mg/kg: 80%
[2]; [11]
  responders at 12.5 mg/kg: 30%
  responders at 25 mg/kg: 50%
  responders at 50 mg/kg: 70%

## NNc1nncc(-c2ccccc2)n1 [Example 3, 3-hydrazino-5-phenyl-1,2,4-triazine]
[7]
  antihypertensive activity: moderately active antihypertensive agent
[1]; [12]
  inhibition in vivo at 40 mg/kg: 55%
[8]
  CNS Activity: Antidepressant
[2]; Mus musculus, po, 0.25 h, 100 mg/kg oral, 15 Min., read-out: Phenylquinone Writhing Assay (% Control), percent analgesia
  responders at 100 mg/kg: 100%
[2]; Mus musculus, po, 0.5 h, 30 mg/kg oral, 30 Min., read-out: Phenylquinone Writhing Assay (% Control), percent analgesia
  responders at 30 mg/kg: 30%
[2]; Mus musculus, po, 0.5 h, 70 mg/kg oral, 30 Min., read-out: Phenylquinone Writhing Assay (% Control), percent analgesia
  responders at 70 mg/kg: 90%

## O=C(NNc1nncc(-c2ccccc2)n1)C(F)(F)F [Example 7, 3-trifluoroacetyl hydrazino-5-phenyl-1,2,4-triazine]
[1]; Rattus norvegicus, 150 mg/kg oral, read-out: % Reduction of Edema
  inhibition in vivo at 150 mg/kg: 41%
[6]; 50 mg/kg oral once daily, Day 3, developing disease
  Adjuvant-Arthritis Assay (% Reduction): 30%
[6]; 50 mg/kg oral once daily, Day 10, developing disease
  Adjuvant-Arthritis Assay (% Reduction): 30%
[6]; 50 mg/kg oral once daily, Day 17, developing disease
  Adjuvant-Arthritis Assay (% Reduction): 39%
[6]; 50 mg/kg oral, Day 20, established disease
  Adjuvant-Arthritis Assay (% Reduction): 4%
[6]; 50 mg/kg oral, Day 27, established disease
  Adjuvant-Arthritis Assay (% Reduction): 24%
[6]; 50 mg/kg oral, Day 31, established disease
  Adjuvant-Arthritis Assay (% Reduction): 29%
[2]; [9]
  responders at 15 mg/kg: 50%
[2]; [11]
  responders at 15 mg/kg: 10%
[3]; rat, in vivo
  duration of activity (hypotensive): long duration of activity
  onset of action (hypotensive): advantageous rapid onset of action

## Cc1nnc(NN)nc1C [Example 25, 3-hydrazino-5,6-dimethyl-1,2,4-triazine]
[1]; [12]
  inhibition in vivo at 40 mg/kg: 46%
[8]
  CNS Activity: Antidepressant
[2]; [9]
  responders at 10 mg/kg: 20%
[2]; [10]
  responders at 10 mg/kg: 10%
  responders at 12.5 mg/kg: 20%
  responders at 25 mg/kg: 90%
